Molecules are shown by their SMILES.

The values below come from patent US12552783B2, “Modulators of proteolysis and associated methods of use” (Arvinas Operations, Inc., priority 2018, dated 2026).

The target of the test is KRas (Homo sapiens, UniProt P01116, G12C). The test is described as follows: KRas degradation in NCI-H2030 cells by Western blot, normalized to GAPDH (data of Table 14). It counts as cell-based. Also on record: host or cells: NCI-H2030. Conditions: for Dmax: NCI-H2030. How it is done:
Cell Lines, Antibodies, and Reagents. NCI-H2030 (CRL-5914) and SW1573 (CRL-2170) cells were purchased from ATCC. Both cell lines are homozygous for the G12C mutation in KRas. NCI-H2030 cells were cultured in RPMI-1640 medium containing 1% penicillin-streptomycin and 10% fetal bovine serum (FBS). SW1573 cells were cultured in DMEM containing 1% penicillin-streptomycin and 10% FBS. The KRas detection antibody (Cat. No. LS-C175665) was purchased from LifeSpan Biosciences and was used at a dilution of 1:2000. GAPDH was detected using an antibody purchased from Cell Signaling Technology (Cat. No. 5174) and was diluted 1:3000. Secondary anti-mouse and anti-rabbit detection antibodies were purchased from Cell Signaling Technology (Cat. Nos. 7076 and 7074, respectively).
Compound Treatment and Western Blotting of the Data of Table 14. Either NCI-H2030 or SW1573 cells were plated in 12-well plates and allowed to adhere overnight at 37° C. in an incubator containing 5% CO2. The following day, the medium was replaced with the appropriate medium lacking FBS to induce starvation. Cells were returned to the incubator for an additional 24 hours following media exchange. […] Cells were treated with VHL-based compounds for 24 hours and all other compounds for 72 hours. Following treatment, cells were lysed in RIPA buffer (Thermo Fisher Cat. No. 89900) containing phosphatase (Thermo Fisher Cat. No. 1861277) and protease (Thermo Fisher Cat. No. 78429) inhibitor cocktails. Lysates were cleared at 13,000 rpm for 15 minutes and supernatants were assayed for total protein concentration using the Pierce BCA assay system (Thermo Fisher Cat. No. 23225). For each sample, 10 μg total protein was resolved on a 12% Bis-Tris gel and then transferred to a nitrocellulose membrane. After blocking in 3% BSA in TBST (Tris-buffered Saline with 0.1% Tween-20) for 1 hour at room temperature, membranes were probed with the primary antibody (LS Bio Cat. No. LS-C175665) overnight at 4° C. After incubation with the secondary antibody, the following day membranes were visualized using the SuperSignal™ West Femto substrate (Thermo Fisher Cat. No. 34095). The KRas signal in each lane was normalized to GAPDH and percent degradation was either estimated as less than 25% by visual inspection (C in Table 13) or quantitated relative to the DMSO control lane using BIO-RAD Image Lab 5.2.1, and all data was plotted using GraphPad PRISM 6.07.
DC50 is the half-maximal degradation concentration—i.e., the concentration at which 50% degradation is observed. DMax is the maximum degradation efficacy is achieved—i.e., the maximal degradation observed) degradation data.

On to `CN(CCOCCOCCOc1ccc2c(c1)C(=O)N(C1CCC(=O)NC1=O)C2=O)C(=O)CCNc1nc(N2CCN(C(=O)C(O)O)CC2)c2cc(Cl)c(-c3c(O)cccc3F)c(F)c2n1` [compound 152, 3-(((R)-6-chloro-4-(4-(2,2-dihydroxyacetyl)piperazin-1-yl)-8-fluoro-7-(2-fluoro-6-hydroxyphenyl)quinazolin-2-yl)amino)-N-(2-(2-(2-((2-(2,6-dioxopiperidin-3-yl)-1,3-dioxoisoindolin-5-yl)oxy)ethoxy)ethoxy)ethyl)-N-methylpropanamide], for which the “Percent Degradation at Indicated Concentration (μM)” value by setting is: (H2030 cells, 0.3 μM) “C (Percent Degradation: C ≤ 35)”; (H2030 cells, 1 μM) “C (Percent Degradation: C ≤ 35)”; (H2030 cells, 3 μM) “C (Percent Degradation: C ≤ 35)”.
In the case of `C=CC(=O)N1CCN(c2nc(NCCC(=O)N(C)CCOCCNc3cccc4c3C(=O)N(C3CCC(=O)NC3=O)C4=O)nc3c(F)c(-c4cc(O)cc5ccccc45)c(Cl)cc23)CC1` (stereo not drawn) [compound 56, 3-((4-(4-acryloylpiperazin-1-yl)-6-chloro-8-fluoro-7-(3-hydroxynaphthalen-1-yl)quinazolin-2-yl)amino)-N-(2-(2-((2-(2,6-dioxopiperidin-3-yl)-1,3-dioxoisoindolin-4-yl)amino)ethoxy)ethyl)-N-methylpropanamide], the “Percent Degradation at Indicated Concentration (μM): 0.3” value (from here on “Percent Degradation … 0.3”) (H2030 cells, 0.3 μM) is “C (C ≤ 35)”. In addition, the “Percent Degradation at Indicated Concentration (μM): 1” value (“Percent Degradation … (μM): 1” below) (H2030 cells, 1 μM) was “C (C ≤ 35)”. Further, the “Percent Degradation at Indicated Concentration (μM): 3” value (“Percent Degradation … (μM): 3” for short) (H2030 cells, 3 μM) was “C (C ≤ 35)”. Moreover, for the setting “H2030 cells”, the Dmax was ≤ 35%.
In the case of `Cc1ncsc1-c1ccc([C@H](C)NC(=O)[C@@H]2C[C@@H](O)CN2C(=O)[C@@H](NC(=O)COCCOCCOCCOCC/C=C/C(=O)N2CCN(c3nc(NCCC(=O)N(C)C)nc4c(F)c(-c5cc(O)cc6ccccc56)c(Cl)cc34)CC2)C(C)(C)C)cc1` [compound 366], the Dmax was ≤ 35%. Also, the “Percent Degradation at Indicated Concentration (μM)” value (H2030, 0.3 μM) is “C (Percent Degradation: C ≤ 35)”. Further, the “Percent Degradation at Indicated Concentration (μM)” value (H2030, 1 μM) was “C (Percent Degradation: C ≤ 35)”. Moreover, the “Percent Degradation at Indicated Concentration (μM)” value (H2030, 3 μM) is given as “C (Percent Degradation: C ≤ 35)”.
`C=CC(=O)N1CCN(c2nc(NCCC(=O)N(C)CCOCCOCCOCCOCCOc3ccc4c(c3)C(=O)N(C3CCC(=O)NC3=O)C4=O)nc3c(F)c(-c4cc(O)cc5ccccc45)c(Cl)cc23)CC1` (stereo not drawn) [compound 63, 3-((4-(4-acryloylpiperazin-1-yl)-6-chloro-8-fluoro-7-(3-hydroxynaphthalen-1-yl)quinazolin-2-yl)amino)-N-(14-((2-(2,6-dioxopiperidin-3-yl)-1,3-dioxoisoindolin-5-yl)oxy)-3,6,9,12-tetraoxatetradecyl)-N-methylpropanamide]: under “H2030 cells, 0.1 μM”, the “Percent Degradation at Indicated Concentration (μM): 0.1” value is “C (C ≤ 35)”. Further, the “Percent Degradation … 0.3” value (H2030 cells, 0.3 μM) is “C (C ≤ 35)”. Also, the “Percent Degradation … (μM): 1” value (H2030 cells, 1 μM) is on record as “C (C ≤ 35)”. Further, the Dmax (H2030 cells) was ≤ 35%.
On to `CCC(=O)N1CCN(c2nc(NCCC(=O)N(C)CCOCCOCCOCCOc3ccc4c(c3)CN(C3CCC(=O)NC3=O)C4=O)nc3c(F)c(-c4cc(O)cc5ccccc45)c(Cl)cc23)CC1` (stereo not drawn) [compound 53, 3-((6-chloro-8-fluoro-7-(3-hydroxynaphthalen-1-yl)-4-(4-propionylpiperazin-1-yl)quinazolin-2-yl)amino)-N-(2-(2-(2-(2-((2-(2,6-dioxopiperidin-3-yl)-1-oxoisoindolin-5-yl)oxy)ethoxy)ethoxy)ethoxy)ethyl)-N-methylpropanamide], for which, where the note is “H2030 cells, 0.3 μM”, the “Percent Degradation … 0.3” value was “C (C ≤ 35)”. Moreover, the “Percent Degradation … (μM): 1” value (H2030 cells, 1 μM) is given as “C (C ≤ 35)”. Also, the “Percent Degradation … (μM): 3” value (H2030 cells, 3 μM) is “C (C ≤ 35)”. For the same compound, the Dmax (H2030 cells) is ≤ 35%.
Take `C=CC(=O)N1CCN(c2nc(NCCC(=O)N(C)CCOCCOCCOc3ccc4c(c3)CN(C3CCC(=O)NC3=O)C4=O)nc3c(F)c(-c4cc(O)cc5ccccc45)c(Cl)cc23)CC1` (stereo not drawn) [compound 66, 3-((4-(4-acryloylpiperazin-1-yl)-6-chloro-8-fluoro-7-(3-hydroxynaphthalen-1-yl)quinazolin-2-yl)amino)-N-(2-(2-(2-((2-(2,6-dioxopiperidin-3-yl)-1-oxoisoindolin-5-yl)oxy)ethoxy)ethoxy)ethyl)-N-methylpropanamide]: the “Percent Degradation … 0.3” value (H2030 cells, 0.3 μM) is on record as “C (C ≤ 35)”. Moreover, the “Percent Degradation … (μM): 1” value (H2030 cells, 1 μM) is listed as “C (C ≤ 35)”. Under “H2030 cells, 3 μM”, the “Percent Degradation … (μM): 3” value is on record as “C (C ≤ 35)”. The Dmax (H2030 cells) is ≤ 35%.
For `C=CC(=O)N1CCN(c2nc(NCCC(=O)N(C)CCOCCOCCN3CCN(CC(=O)N[C@H](C(=O)N4C[C@H](O)C[C@H]4C(=O)N[C@@H](C)c4ccc(-c5scnc5C)cc4)C(C)(C)C)CC3)nc3c(F)c(-c4cc(O)cc5ccccc45)c(Cl)cc23)CC1` [compound 249, (2S,4R)-1-((2S)-2-(2-(4-(2-(2-(2-(3-((4-(4-acryloylpiperazin-1-yl)-6-chloro-8-fluoro-7-(3-hydroxynaphthalen-1-yl)quinazolin-2-yl)amino)-N-methylpropanamido)ethoxy)eth-oxy)ethyl)piperazin-1-yl)acetamido)-3,3-dimethylbutanoyl)-4-hydroxy-N-((S)-1-(4-(4-methylthiazol-5-yl)phenyl)ethyl)pyrrolidine-2-carboxamide], the Dmax is ≤ 35%. The “Percent Degradation at Indicated Concentration (μM)” value (H2030, 0.3 μM) is reported as “C (Percent Degradation: C ≤ 35)”. In addition, the “Percent Degradation at Indicated Concentration (μM)” value (H2030, 1 μM) is “C (Percent Degradation: C ≤ 35)”. In addition, for the setting “H2030, 3 μM”, the “Percent Degradation at Indicated Concentration (μM)” value is listed as “C (Percent Degradation: C ≤ 35)”.
On to `C=CC(=O)N1CCN(c2nc(NCCC(=O)N(C)CCOCCOCCNC(=O)c3ccc(NC(=O)[C@@H]4N[C@@H](CC(C)(C)C)[C@](C#N)(c5ccc(Cl)cc5F)[C@H]4c4cccc(Cl)c4F)c(OC)c3)nc3c(F)c(-c4cc(O)cc5ccccc45)c(Cl)cc23)CC1` [compound 302, (2R,3S,4R,5S)-N-(4-((2-(2-(2-(3-((4-(4-acryloylpiperazin-1-yl)-6-chloro-8-fluoro-7-(3-hydroxynaphthalen-1-yl)quinazolin-2-yl)amino)-N-methylpropanamido)ethoxy)eth-oxy)ethyl)carbamoyl)-2-methoxyphenyl)-3-(3-chloro-2-fluorophenyl)-4-(4-chloro-2-fluorophenyl)-4-cyano-5-neopentylpyrrolidine-2-carboxamide], for which the Dmax is ≤ 35%. The “Percent Degradation at Indicated Concentration (μM)” value (H2030, 0.3 μM) is recorded as “C (Percent Degradation: C ≤ 35)”. Moreover, the “Percent Degradation at Indicated Concentration (μM)” value (H2030, 1 μM) is “C (Percent Degradation: C ≤ 35)”. The “Percent Degradation at Indicated Concentration (μM)” value (H2030, 3 μM) was “C (Percent Degradation: C ≤ 35)”.
As to `C=CC(=O)N1CCN(c2nc(NCCC(=O)N(C)CCOc3cc(-c4scnc4C)ccc3CNC(=O)[C@@H]3C[C@@H](O)CN3C(=O)[C@@H](c3cc(C)no3)C(C)C)nc3c(F)c(-c4cc(O)cc5ccccc45)c(Cl)cc23)CC1` [compound 337], the Dmax is ≤ 35%. For the same compound, for the setting “H2030, 0.3 μM”, the “Percent Degradation at Indicated Concentration (μM)” value was “C (Percent Degradation: C ≤ 35)”. For the setting “H2030, 1 μM”, the “Percent Degradation at Indicated Concentration (μM)” value is on record as “C (Percent Degradation: C ≤ 35)”. Where the note is “H2030, 3 μM”, the “Percent Degradation at Indicated Concentration (μM)” value was “C (Percent Degradation: C ≤ 35)”.
For `C=CC(=O)N1CCN(c2nc(NCCC(=O)N(C)CCOCCOCCOCCOc3ccc(-c4csc([C@@H]5CCCN5C(=O)[C@@H](NC(=O)[C@H](C)NC)C5CCCCC5)n4)c4ccccc34)nc3c(F)c(-c4c(O)cccc4F)c(Cl)cc23)CC1` (atropisomer, axis not shown) [compound 278, 3-((4-(4-acryloylpiperazin-1-yl)-6-chloro-8-fluoro-7-((S)-2-fluoro-6-hydroxyphenyl)quinazolin-2-yl)amino)-N-(2-(2-(2-(2-((4-(2-((S)-1-((S)-2-cyclohexyl-2-((S)-2-(methylamino)propan-amido)acetyl)pyrrolidin-2-yl)thiazol-4-yl)naphthalen-1-yl)oxy)ethoxy)ethoxy)eth-oxy)ethyl)-N-methylpropanamide], the Dmax is ≤ 35%. For the setting “H2030, 0.3 μM”, the “Percent Degradation at Indicated Concentration (μM)” value is given as “C (Percent Degradation: C ≤ 35)”. The “Percent Degradation at Indicated Concentration (μM)” value (H2030, 1 μM) is “C (Percent Degradation: C ≤ 35)”. Moreover, under “H2030, 3 μM”, the “Percent Degradation at Indicated Concentration (μM)” value is “C (Percent Degradation: C ≤ 35)”.

As a reminder, the Dmax is the largest share of the target that was removed.
